PubChem BioAssay AID1259407 (Chemical Carcinogenesis Research Information System (CCRIS), 2018)
Active and inactive are the calls of the source. How the calls were made is not given here.

System: CCRIS mutagenicity, Ames/micronucleus/aberration tests
Assay: CCRIS mutagenicity studies
Settings: Test System: AMES SALMONELLA TYPHIMURIUM, Method: PREINCUBATION

Measured: mutagenic call

C[N+]1([O-])CCC[C@H]1c1cccnc1 (stereo not given in full)
inactive: Strain/Indicator: TA98, Metabolic Activation: NONE inactive; negative | Strain/Indicator: TA98, Metabolic Activation: RAT, LIVER, S-9, AROCLOR 1254 (5%) inactive; negative | Strain/Indicator: TA100, Metabolic Activation: NONE inactive; negative | Strain/Indicator: TA100, Metabolic Activation: RAT, LIVER, S-9, AROCLOR 1254 (5%) inactive; negative | Strain/Indicator: TA1535, Metabolic Activation: NONE inactive; negative | Strain/Indicator: TA1535, Metabolic Activation: RAT, LIVER, S-9, AROCLOR 1254 (5%) inactive; negative | Strain/Indicator: TA1537, Metabolic Activation: NONE inactive; negative | Strain/Indicator: TA1537, Metabolic Activation: RAT, LIVER, S-9, AROCLOR 1254 (5%) inactive; negative | Strain/Indicator: TA1538, Metabolic Activation: NONE inactive; negative | Strain/Indicator: TA1538, Metabolic Activation: RAT, LIVER, S-9, AROCLOR 1254 (5%) inactive; negative
